System: HEK293T viability, CellTiter-Glo ATP luminescence, 72 h
Assay: ATP-based viability loss in HEK293T cells – cell-based, CellTiter-Glo luminescence, cherry-pick, set 3, cytotoxicity control, dose response (AID 720588);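 further: potency for luminescence loss meaning cytotoxic compounds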

| Structure (SMILES) | AC35 [µM] |
| --- | --- |
| CC(C)CC#Cc1ccc([C@@H]2[C@@H](CO)N3CCCCN(S(=O)(=O)c4ccc(F)cc4)C[C@H]23)cc1 | 16.1 |
| O=c1[nH]c(=O)n([C@H]2C[C@H](O)[C@@H](CO)O2)cc1F | 5.28 |
| C[C@@H]1CCCCO[C@H](CN(C)Cc2ccc(C(=O)Nc3ccccc3N)cc2)[C@@H](C)CN([C@H](C)CO)C(=O)c2cc(NS(=O)(=O)c3ccc(Cl)cc3)ccc2O1 | 17.3 |
| C[C@@H]1CN([C@H](C)CO)C(=O)c2cc(NC(=O)Nc3ccccc3)ccc2O[C@@H]1CN(C)Cc1ccc(C(=O)Nc2ccccc2N)cc1 | 12.7 |
| O=C1NC(=O)N(c2ccccc2)C(=O)/C1=C\C=C\c1ccccc1 | 19.1 |
| COC1C(C)OC(OC2CC(C)(O)Cc3cc4c(c(O)c32)C(=O)c2c(O)cc3c(c2C4=O)OC2OC3(C)C(O)C(N(C)C)C2O)C(OC)C1(C)OC (configuration not stated) | 0.128 |
| O=C(c1nnsc1S(=O)c1ccc(Cl)cc1)N1CCOCC1 (configuration not stated) | 5.6 |
| O=C1NC(=O)N(Cc2ccccc2)C(=O)/C1=C\C=C\c1ccco1 | 12.9 |
| Oc1c(Cl)cc(Cl)c(Cl)c1Cc1c(O)c(Cl)cc(Cl)c1Cl | 11.4 |
| CC12CCC(O)CC1CCC1C2CCC2(C)C(C3=CC(=O)OC3)CCC12O (configuration not stated) | 0.375 |
| Cc1cc2sc3ccc(C#CC4(O)CCCCC4)cc3c(=O)c2cc1C | 18.4 |
| OCC1OC(n2ccc3c2ncn2ncnc32)C(O)C1O (configuration not stated) | 14.6 |
| OC[C@H]1[C@@H](c2ccc(C#CC3CCCC3)cc2)[C@@H]2CN(CCC(F)(F)F)CCCCN12 | 10.4 |
| CN(C[C@H]1N[C@@H](CO)[C@@H]1c1ccc(C2=CCCC2)cc1)C(=O)c1cccc(F)c1 | 4.63 |
| C/C(=N\NC(=O)c1n[nH]c2c1CCC2)c1cccs1 | 10.8 |
| O=C(NC1CCCC1)N1CCCCN2[C@@H](CO)[C@@H](c3ccc(/C=C/c4ccccc4)cc3)[C@@H]2C1 | 9.42 |
| Oc1c(C(c2ccc(Cl)cc2)N2CCCC2)cc(Cl)c2cccnc12 (configuration not stated) | 6.54 |
| CCOc1ccc(N=Nc2ccc(O)c3ncccc23)cc1 | 13.4 |
| C[C@]12CCC3C(CCC4=CC(O)CC[C@@]43/C=N/O)C1(O)CCC2C1=CC(=O)OC1 (some centres not stated) | 0.694 |
| CC1(C)N=C(N)N=C(N)N1c1ccc(CCCCc2ccccc2)cc1 | 3.5 |
| CCN1C/C(=C/c2ccc(N3CCOCC3)cc2)C(=O)/C(=C/c2ccc(N3CCOCC3)cc2)C1 | 9.96 |

| Structure (SMILES) | AC35 [µM] |
| --- | --- |
| C(=N\Nc1nc2ccccc2s1)/c1ccccn1 | 3.56 |
| Cc1ccc(/C=N/Nc2ccnc3cc(Cl)ccc23)c(C)c1 | 10.6 |
| Nc1ccc(Oc2cccc(Oc3ccc(N)cc3)c2)cc1 | 6.82 |
| C[C@@H]1O[C@@H](O[C@@H]2C=C3CC[C@@H]4C(CC[C@]5(C)[C@@H](c6ccc(=O)oc6)CC[C@]45O)[C@@]3(C)CC2)[C@H](O)[C@H](O)[C@H]1O (some centres not stated) | < 0.011 |
| CC(C)N1C/C(=C/c2cccnc2)C(=O)/C(=C/c2cccnc2)C1 | 18.7 |
| CN1C2CCC1/C(=C/c1ccccn1)C(=O)/C2=C\c1ccccn1 | 1.1 |
| CC1=NN(c2ccc(C)cc2)C(=O)/C1=C\C=C\c1ccccc1 | 14.3 |
| CCc1cccc2c(C(=O)CN3C(=O)NC4(CCCCC4)C3=O)c[nH]c12 | 11.6 |
| O=C(O)c1ccc(N/N=C/c2ccc3c(c2)OCO3)cc1 | 7.33 |
| Nc1nc(=S)c2[nH]cnc2[nH]1 | 5.79 |
| CCCCCCCCNC(C)C(O)c1ccc(SC(C)C)cc1 (configuration not stated) | 12.2 |
| CN(C)c1ccc(C=c2c3ccccc3n3c2c2c([n+]3C)CCCC2)cc1 | 2.08 |
| C[C@H]1CN([C@@H](C)CO)C(=O)c2cc(N(C)C)ccc2O[C@@H]1CN(C)Cc1ccc(C(=O)Nc2ccccc2N)cc1 | 24.8 |
| COc1ccc(OC)c(-c2nnc3n2N=C(c2ccc(OC)c(OC4CCOC4)c2)CS3)c1 (configuration not stated) | 9.24 |
| Nc1ccc(Cn2ccc3c4c(N)nc(N)nc4ccc32)cc1 | 0.125 |
| CCc1ccc(N2C=C(C(=O)OC)C(c3ccc(OC)cc3)C(C#N)=C2N)cc1 (configuration not stated) | 10.6 |
| COc1ccc(S(=O)(=O)N2CC[C@@H]3[C@@H](CO)Nc4ccc(-c5ccc(C#N)cc5)cc4[C@@H]32)cc1 | 16.5 |
| C[C@@H]1O[C@@H](O[C@H]2C[C@@H](O)[C@]3(CO)[C@H]4[C@H](O)C[C@]5(C)[C@@H](C6COC(=O)C6)CC[C@]5(O)[C@@H]4CC[C@]3(O)C2)[C@H](O)[C@H](O)[C@H]1O (some centres not stated) | 2.22 |
| CN(CCO)c1ccc(/C=N/Nc2nncc3ccccc23)cc1 | 13 |
| C[C@H]1O[C@@H](O[C@H]2[C@@H](O)C[C@H](O[C@H]3[C@@H](O)C[C@H](O[C@H]4CC[C@@]5(C)[C@H](CC[C@@H]6[C@@H]5C[C@@H](O)[C@]5(C)[C@@H](C7=CC(=O)OC7)CC[C@]65O)C4)O[C@@H]3C)O[C@@H]2C)C[C@H](O)[C@@H]1O | 0.0823 |
| COc1ccc(OC)c(Cc2cnc3nc(N)nc(N)c3c2C)c1 | 0.151 |

From PubChem BioAssay AID720588 (Broad Institute, 2013)
